Measurements reported in publication PMC5504166, “Rosmarinic Acid Protects against Inflammation and Cardiomyocyte Apoptosis during Myocardial Ischemia/Reperfusion Injury by Activating Peroxisome Proliferator-Activated Receptor Gamma” (Frontiers in Pharmacology, 2017).

What was measured:
[1] = biological target: T1, PTGS2/COX2 (Prostaglandin G/H synthase 2) (Ovis aries, UniProt P79208); experiment: Colorimetric COX (ovine) inhibitor screening assay kit (Cayman); format: biochemical; conditions: read-out: IC50 (mean ± SD μM)
T1 sequence (P79208 17-603): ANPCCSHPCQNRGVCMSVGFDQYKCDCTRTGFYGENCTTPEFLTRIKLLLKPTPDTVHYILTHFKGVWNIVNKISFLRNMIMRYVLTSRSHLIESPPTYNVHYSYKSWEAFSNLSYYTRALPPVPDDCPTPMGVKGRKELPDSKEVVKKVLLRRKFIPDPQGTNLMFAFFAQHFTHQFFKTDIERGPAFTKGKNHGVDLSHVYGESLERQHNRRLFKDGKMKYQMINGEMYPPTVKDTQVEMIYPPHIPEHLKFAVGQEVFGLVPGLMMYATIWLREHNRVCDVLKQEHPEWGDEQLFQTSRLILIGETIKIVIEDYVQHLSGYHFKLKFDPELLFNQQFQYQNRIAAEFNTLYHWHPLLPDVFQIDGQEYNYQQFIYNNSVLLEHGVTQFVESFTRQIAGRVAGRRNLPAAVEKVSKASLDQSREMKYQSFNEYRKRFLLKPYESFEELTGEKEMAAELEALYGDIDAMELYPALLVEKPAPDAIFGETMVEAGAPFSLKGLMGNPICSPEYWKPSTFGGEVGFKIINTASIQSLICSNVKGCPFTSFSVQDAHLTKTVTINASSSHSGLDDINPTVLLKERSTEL

PPARγ = biological target: T2, PPARγ (Homo sapiens, UniProt P37231); experiment: PolarScreen PPAR Gamma Competitor Assay, Green (fluorescence polarization competition); format: binding; conditions: read-out: EC50 (mean ± SD μM)
T2 construct: gene PPARG
T2 sequence (P37231 1-505): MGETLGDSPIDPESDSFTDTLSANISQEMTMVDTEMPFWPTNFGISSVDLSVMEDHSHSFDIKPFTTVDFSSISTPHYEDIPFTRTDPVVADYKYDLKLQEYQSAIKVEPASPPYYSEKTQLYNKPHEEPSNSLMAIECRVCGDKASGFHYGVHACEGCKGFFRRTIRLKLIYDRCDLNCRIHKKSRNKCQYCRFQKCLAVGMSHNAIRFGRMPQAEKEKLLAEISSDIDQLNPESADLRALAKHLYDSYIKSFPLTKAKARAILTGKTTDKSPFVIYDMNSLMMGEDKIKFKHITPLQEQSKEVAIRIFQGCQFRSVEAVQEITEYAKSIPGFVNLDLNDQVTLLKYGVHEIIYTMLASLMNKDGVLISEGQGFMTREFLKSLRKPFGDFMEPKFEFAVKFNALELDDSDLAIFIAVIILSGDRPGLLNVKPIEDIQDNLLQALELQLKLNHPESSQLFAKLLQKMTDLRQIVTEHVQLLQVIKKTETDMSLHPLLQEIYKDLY

O=C(/C=C/c1ccc(O)c(O)c1)O[C@H](Cc1ccc(O)c(O)c1)C(=O)O [RosA, Rosmarinic acid]
IC50 [1]: 170 ± 9.18 µM | EC50 (PPARγ): 55.8 ± 3.45 µM
